Counter-ions that a name gives are not always drawn.
System: Huh7 cells expressing a subgenomic RNA replicon of Con1 (genotype 1b) sequence origin
Assay: microbe, parasite or virus in culture
Details: Hepatitis C virus, GETYPE1B, Huh-7, read-out: IC25 (values noted with an asterisk)

Compound | IC25 [µM]
O=C1CC(=O)c2c(Cl)c(Cl)c(Cl)c(Cl)c21 [UCH-L3 inhibitor, 4,5,6,7-Tetrachloroindan-1,3-dione, reference compound] | 19.7

Same assay, conditions: Hepatitis C virus, Huh-7

Compound | IC50 [µM]
CN(C)CCOc1ccc(/C(=C(/CCCl)c2ccccc2)c2ccccc2)cc1 [Toremifene, reference compound] | 15.9
C[C@H]1[C@@H](O)O[C@@H]2O[C@@]3(C)CC[C@H]4[C@H](C)CC[C@@H]1[C@@]24OO3 [Dihydroartemisinin, dihydroartemisinin, reference compound] | 3.87
O=c1cc(N2CCOCC2)oc2c(-c3ccccc3)cccc12 [LY 294002, reference compound] | 3.4
CC[C@H](C)C(=O)O[C@H]1CCC=C2C=C[C@H](C)[C@H](CC[C@@H]3C[C@@H](O)CC(=O)O3)[C@H]21 [Mevastatin, reference compound] | 3.45
CN(Cc1cc(Br)cc(Br)c1N)C1CCCCC1 [Bromhexine, reference compound] | 14.2
COc1c(C)c2c(c(O)c1C/C=C(\C)CCC(=O)O)C(=O)OC2 [Mycophenolic Acid, Mycophenolic acid, reference compound] | 0.751
Cc1c(O)cccc1C(=O)N[C@@H](CSc1ccccc1)[C@H](O)CN1C[C@H]2CCCC[C@H]2C[C@H]1C(=O)NC(C)(C)C [Nelfinavir (e.g., mesylate), nelfinavir, reference compound] | 4.25
CC1=C(O)C(=O)C=C2C1=CC=C1[C@@]2(C)CC[C@@]2(C)[C@@H]3C[C@](C)(C(=O)O)CC[C@]3(C)CC[C@]12C [Celastrol, reference compound] | 0.449
COC(=O)Nc1nc2ccc([S+]([O-])c3ccccc3)cc2[nH]1 (centres unmarked) [Oxfendazole, reference compound] | 7.3
C[C@]12CCC(=O)C=C1CC[C@@H]1[C@@H]2CC[C@@]2(C)[C@H]1CC[C@]2(C)O [Methyltestosterone, methyltestosterone, reference compound] | 19.1
COC(=O)[C@H]1[C@H]2C[C@@H]3c4[nH]c5cc(OC)ccc5c4CCN3C[C@H]2C[C@@H](OC(=O)c2cc(OC)c(OC)c(OC)c2)[C@@H]1OC [Reserpine, reference compound] | 25.3
C/C=C(/C(=C/C)c1ccc(O)cc1)c1ccc(O)cc1 [Dienestrol, reference compound] | 16.5
CCCCCCCCCCCCCCOc1ccc(C(=O)O)o1 [TOFA, 5-(tetradecyloxy)-2-furancarboxylic acid, reference compound] | 5.53
O=C1[C@H]2CCCC[C@H]2C(=O)N1CCCCN1CCN(c2nsc3ccccc23)CC1 [Perospirone, reference compound] | 3.6
CN1CCN(CCCN2c3ccccc3Sc3ccc(C(F)(F)F)cc32)CC1 [Trifluoperazine (e.g., hydrochloride), Trifluoperazine, reference compound] | 4.97
COc1cc(C(=O)NS(=O)(=O)c2ccccc2C)ccc1Cc1cn(C)c2ccc(NC(=O)OC3CCCC3)cc12 [Zafirlukast, reference compound] | 18.5
CN(C)CCCN1c2ccccc2CCc2ccccc21 [Imipramine (e.g., hydrochloride), Imipramine, reference compound] | 16.9
C[C@H]1[C@H](OC(=O)CCC(=O)O)O[C@@H]2O[C@@]3(C)CC[C@H]4[C@H](C)CC[C@@H]1[C@@]24OO3 [Artesunate, artesunate, reference compound] | 3.73
CC[N+](C)(CC)CCC[n+]1c(-c2ccccc2)c2cc(N)ccc2c2ccc(N)cc21 [Propidium (e.g., iodide), Propidium, reference compound] | 9.38

Compound | IC50 [µM]
CCC(C)(C)C(=O)O[C@H]1C[C@@H](C)C=C2C=C[C@H](C)[C@H](CC[C@@H]3C[C@@H](O)CC(=O)O3)[C@H]21 [Simvastatin, simvastatin, reference compound] | 21.3
CN1CCCC(n2nc(Cc3ccc(Cl)cc3)c3ccccc3c2=O)CC1 (centres unmarked) [Azelastine, azelastine, reference compound] | 6.22
Oc1cccc2c(O)nccc12 [1,5-Isoquinolinediol, reference compound] | 25.9
CC(C)n1c(/C=C/C(O)CC(O)CC(=O)O)c(-c2ccc(F)cc2)c2ccccc21 (centres unmarked) [Fluvastatin (e.g., sodium), fluvastatin, reference compound] | 22.2
COc1cc(NC(=O)Nc2cccc(CNC(=O)O[C@H]3CCOC3)c2)ccc1-c1cnco1 [Merimepodib (VX-497), merimepodib, reference compound] | 0.475
O=c1oc2cc(O)ccc2s1 [Tioxolone, reference compound] | 16.2
O=C1Nc2ccc(Cl)cc2[C@@](C#CC2CC2)(C(F)(F)F)O1 [Efavirenz, efavirenz, reference compound] | 15.5
Nc1nc(Cl)nc2c1ncn2[C@H]1C[C@H](O)[C@@H](CO)O1 [Cladribine, 2-chloro-2′-deoxyadenosine, reference compound] | 0.112
Nc1ncnc2c1ncn2[C@@H]1O[C@H](CO)[C@@H](O)[C@@H]1O [Vidarabine, vidarabine, reference compound] | 26.7
Nc1ccccc1OCCCCCOc1ccccc1N [2,2′-(Pentamethylenedioxy)dianiline, reference compound] | 0.27
CCCCC(CC)COC(=O)/C=C/c1ccc(OC)cc1 (centres unmarked) [Octyl Methoxycinnamate, reference compound] | 1.24
Nc1nc(F)nc2c1ncn2[C@@H]1O[C@H](CO)[C@@H](O)[C@@H]1O [Fludarabine, reference compound] | 4.47
Nc1n[n+]([O-])c2ccccc2[n+]1[O-] [Tirapazamine, reference compound] | 1.83
CNC(=O)Oc1cccc2ccccc12 [Carbaryl] | 9.65
CN1CCCCC1CCN1c2ccccc2Sc2ccc([S+](C)[O-])cc21 (centres unmarked) [Mesoridazine (e.g., Besylate), mesoridazine, reference compound] | 19
CC(=O)O[C@H]1C(=O)[C@@]2(C)[C@H]([C@H](OC(=O)c3ccccc3)[C@]3(O)C[C@H](OC(=O)[C@H](O)[C@@H](NC(=O)c4ccccc4)c4ccccc4)C(C)=C1C3(C)C)[C@]1(OC(C)=O)CO[C@@H]1C[C@@H]2O [Paclitaxel, reference compound] | 0.0092
CC1=C(/C=C/C(C)=C/C=C/C(C)=C/C(=O)Nc2ccc(O)cc2)C(C)(C)CCC1 [Fenretinide, reference compound] | 2.26
Nc1ccc(OCCCCCOc2ccc(N)cc2)cc1 [1,5-Bis(4-aminophenoxy)pentane, reference compound] | 1.7
Nc1cccc(OCCCCCOc2cccc(N)c2)c1 [3,3′-(Pentamethylenedioxy)dianiline, reference compound] | 1.63

Compound | IC50 [µM]
C=C1C[C@@H]2[C@H](CC[C@]3(C)C(=O)CC[C@@H]23)[C@@]2(C)C=CC(=O)C=C12 [Exemestane, reference compound] | 29
O=C1CC(O)(c2ccccc2)Oc2ccccc21 (centres unmarked) [2-Hydroxyflavanone, 2-hydroxyflavanone, reference compound] | 2.48
CC1(C)C(/C=C/C=C/C=C/C=C2\N(CCCCS(=O)(=O)O)c3ccc4ccccc4c3C2(C)C)=[N+](CCCCS(=O)(=O)[O-])c2ccc3ccccc3c21 [Indocyanine Green, reference compound] | 8.13
COc1cc(CNC(=O)CCCC/C=C/C(C)C)ccc1O [Capsaicin, reference compound] | 11.7
CN(C)CCOC(C)(c1ccccc1)c1ccc(Cl)cc1 (centres unmarked) [Chlorphenoxamine (e.g., hydrochloride), chlorphenoxamine, reference compound] | 16.2
CC(C)C[C@H]1C(=O)N2CCC[C@H]2[C@]2(O)O[C@](NC(=O)[C@@H]3C=C4c5cccc6[nH]c(Br)c(c56)C[C@H]4N(C)C3)(C(C)C)C(=O)N12 [Bromocriptine (e.g., mesylate), bromocriptine, reference compound] | 3.38
CCOC(=O)c1ccc(N)cc1 [Benzocaine, reference compound] | 13.9
CCN(CCCCOC(=O)c1ccc(OC)c(OC)c1)C(C)Cc1ccc(OC)cc1 (centres unmarked) [Mebeverine (e.g., hydrochloride), Mebeverine, reference compound] | 14.9
O=C1C(CC[C@@H](O)c2ccc(F)cc2)[C@@H](c2ccc(O)cc2)N1c1ccc(F)cc1 (some centres unmarked) [Ezetimibe, ezitamibe, reference compound] | 4.2
O=C(O)Cc1cc(I)c(Oc2ccc(O)c(I)c2)c(I)c1 [Tiratricol, reference compound] | 15.6
CCN(CC)CCOCCOC(=O)C(CC)(CC)c1ccccc1 [Oxeladin, reference compound] | 8.72
COC[C@H]1OC(=O)c2coc3c2[C@@]1(C)C1=C(C3=O)[C@@H]2CCC(=O)[C@@]2(C)C[C@H]1OC(C)=O [Wortmannin, wortmannin, reference compound] | 3.16
O=c1[nH]cc(F)c(=O)[nH]1 [Fluorouracil, reference compound] | 18.7
COc1cc(/C=C/C(=O)CC(=O)/C=C/c2ccc(O)c(OC)c2)ccc1O [Curcumin, curcumin] | 8.68
CC[C@@]1(O)C(=O)OCc2c1cc1n(c2=O)Cc2cc3ccccc3nc2-1 [Camptothecin, camptothecin, reference compound] | 0.026
Oc1ccc(-c2nc(-c3ccc(F)cc3)c(-c3ccncc3)[nH]2)cc1 [SB-202190, reference compound] | 5.18
O=CN/C=C/c1cc(O)ccc1O [Erbstatin, reference compound] | 7.63
C=C1C(=O)O[C@H]2[C@H]1CC/C(C)=C/CC[C@@]1(C)O[C@@H]21 [Parthenolide, reference compound] | 2.69

Same assay, conditions: Hepatitis C virus, Huh-7, read-out: IC50 in our hands

Compound | IC50 [µM]
COc1cc(C(=O)NS(=O)(=O)c2ccccc2C)ccc1Cc1cn(C)c2ccc(NC(=O)OC3CCCC3)cc12 [Zafirlukast, reference compound] | 18.5

Same assay, conditions: Hepatitis C virus, Huh-7, read-out: Max Effect@CC30 (inhibition)

Compound | Emax [%]
CNCc1cc(S(N)(=O)=O)ccc1Oc1ccc(Br)cc1 [Compound 44, 4-(4-bromophenoxy)-3-((methylamino)methyl)benzenesulfonamide] | 32.1

— US20100009970A1, “COMPOSITIONS AND METHODS FOR TREATMENT OF VIRAL DISEASES” (Combinatorx (Singapore) Pte. Ltd., priority 2008, published 2010)
